According to patent EP0974593A1, “Artemisinin derivatives as antiparasitic agents” (The Hong Kong University of Science & Technology, priority 1998, dated 2000):
In brackets after ≈: the same amount, converted by molar mass. Read-outs that look alike come from different tables or passages of the source.

Key:
[1] = tested on: Plasmodium Falciparum W2 strain (chloroquine resistant); assay: In vitro activity against Plasmodium falciparum, 3H-hypoxanthine incorporation assay, W2 strain; format: cell-based; settings: W2, 66 h; for IC50 / IC90: Plasmodium falciparum
Source text: (§1) (a) InVitro Activity against Plasmodium Falciparum
(§2) Two parasite strains - W2 resistant to chloroquine, and D6 sensitive to chloroquine but […] were used. In Table I below, the best compounds should show no cross resistance between the two strains.
(§3) The assay relies on incorporation of radiolabelled hypoxanthine by the parasite and inhibition of incorporation is attributed to activity of known or candidate antimalarial drugs. For each assay, proven antimalarials such as chloroquine, mefloquine, quinine, artemisinin and pyrimethamine were used as controls. The incubation period was 66 hours, and the starting parasitemia was 0.2% with 1% hematocrit. The medium was an RPMI-1640 culture with no folate or p-aminobenzoic acid. Albumax rather than 10% normal heat inactivated human plasma was used as, with Albumax, less protein binding is observed, and compounds elicit slightly higher activities in this model. If a compound was submitted with no prior knowledge of activity, it was dissolved directly in dimethyl sulphoxide (DMSO), and diluted 400 fold with complete culture medium. […]. These dilutions were performed automatically by a Biomek 1000 Liquid Handling System in 96-well microtiter plates. The diluted drugs were then transferred to test plates, 200 µL of parasitized erythrocytes were added, and incubated at 37°C in a controlled environment of 5% CO2, 5% O2 and 90% N2. After […], 25 µL of ^3H-hypoxanthine was added, and the plates incubated for an additional 24 hours. After 66 hours, the plates were frozen at -70°C to lyse the red cells, and then thawed and harvested onto glass fiber filter mats in a 96-well harvester. The filter mats were then counted in a scintillation counter. For each drug, the concentration response profile was determined and 50% and 90% inhibitory concentrations (IC50, IC90 […]) were determined by a non-linear logistic dose response analysis program.
(§4) A prescreen format can be used wherein a 3-dilution assay may be used to determine activity at high medium or low concentrations. […]. These were performed in duplicate on a 96-well format plate with 14 test compounds and one known (standard) compound per plate. The system was automated with a Biomek diluter for mixing and diluting the drugs, and adding drugs and parasites to a test plate.
(§5) In the prescreen format, if the ANALYSIS FIELD (AF) has a "<", then the compound was "very active" and the IC values are most likely to be below the last dilution value (in nanograms/ml), which is listed next to AF. In most cases, these compounds were run again at lower starting concentration to determine the true IC value. If the AF has a ">", then the IC value is greater than the prescreen dilution value; thus "AF>250" means that the IC value is greater than 250 ng ml^-1 and no further screening is carried out. In such cases, values of 0.00 are entered for IC values.

[2] = tested on: Plasmodium Falciparum D6 strain (chloroquine sensitive); assay: In vitro activity against Plasmodium falciparum, 3H-hypoxanthine incorporation assay, D6 strain; format: cell-based; settings: D6, 66 h; for IC50 / IC90: Plasmodium falciparum; for IC50: read-out: In vitro activity: IC50; for IC90: read-out: In vitro activity: IC90
Source text: as §1, §2, §3, §4, §5

[3] = read-out: In vitro activity: IC50, W2 strain (chloroquine resistant), 66 hours incubation, Albumax medium
[4] = read-out: In vitro activity: IC90, W2 strain (chloroquine resistant), 66 hours incubation, Albumax medium
[5] = D6 strain (chloroquine sensitive, resistant to mefloquine), 66 hours incubation, Albumax medium

| Compound | IC50 ([1]; read-out: In vitro activity: IC50) | IC90 ([1]; read-out: In vitro activity: IC90) | IC50 [2] | IC90 [2] | IC50 [1, 3] | IC90 [1, 4] | IC50 [2, 5] | IC90 [2, 5] | In vitro activity: (IC10) [1] | In vitro activity: (IC10) [2] |
| --- | --- | --- | --- | --- | --- | --- | --- | --- | --- | --- |
| C[C@@H]1CC[C@H]2[C@@H](C)C(=O)N[C@@H]3O[C@@]4(C)CC[C@@H]1[C@]32OO4 [Example 1, 11-azaartemisinin] | 1.73 ng/mL (≈ 6.15 nM) | 2.24 ng/mL (≈ 7.96 nM) | 2.6 ng/mL (≈ 9.24 nM) | 3.6 ng/mL (≈ 12.8 nM) |  |  |  |  |  |  |
| C[C@@H]1CC[C@H]2[C@@H](C)C(=O)N(Cc3ccccc3F)[C@@H]3O[C@@]4(C)CC[C@@H]1[C@@]23OO4 [Example 2, 11-aza-N-(2-fluorobenzyl)artemisinin] |  |  |  |  | 0.775 ng/mL (≈ 1.99 nM) | 0.975 ng/mL (≈ 2.5 nM) | 0.64 ng/mL (≈ 1.64 nM) | 0.99 ng/mL (≈ 2.54 nM) |  |  |
| C[C@@H]1CC[C@H]2[C@@H](C)C(=O)N(Cc3ccc(F)cc3)[C@@H]3O[C@@]4(C)CC[C@@H]1[C@@]23OO4 [Example 4] |  |  |  |  |  |  |  |  | 0.31 ng/mL | 1.13 ng/mL |
| C[C@@H]1CC[C@H]2[C@@H](C)C(=O)N(Cc3cccc(F)c3)[C@@H]3O[C@@]4(C)CC[C@@H]1[C@@]23OO4 [Example 5] |  |  |  |  | 0.58 ng/mL (≈ 1.49 nM) | 0.95 ng/mL (≈ 2.44 nM) | 0.79 ng/mL (≈ 2.03 nM) | 1.26 ng/mL (≈ 3.24 nM) |  |  |
| C[C@@H]1CC[C@H]2[C@@H](C)C(=O)N(Cc3ccccc3)[C@@H]3O[C@@]4(C)CC[C@@H]1[C@@]23OO4 [Example 6] |  |  |  |  | 3.8 ng/mL (≈ 10.2 nM) | 4.68 ng/mL (≈ 12.6 nM) | 3.62 ng/mL (≈ 9.74 nM) | 6.68 ng/mL (≈ 18 nM) |  |  |
